Data from ChEMBL document CHEMBL1201862, “PubChem BioAssay data set” (2004).
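Grown in 96-well plates, cells were treated for 48 hours with each compound at five concentrations. Insufficient inhibition: endpoint recorded as highest concentration tested. GI50 marks 50% less growth.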 Calls of active or inactive are those of the source. Rule as the data show it: active = GI50 up to about 1.1 µM and inactive = higher.

How the values were obtained:
Assay in all cases: NCI tumour cell line growth inhibition, 48 h
OVCAR-3 = test system: OVCAR-3
HCC 2998 = test system: HCC 2998
LOX IMVI = test system: LOX IMVI
EKVX = test system: EKVX
MDA-MB-435 = test system: MDA-MB-435
MDA-N = test system: MDA-N
Malme-3M = test system: Malme-3M
UO-31 = test system: UO-31
MCF7 = test system: MCF7
SF-295 = test system: SF-295
SF-268 = test system: SF-268
PC-3 = test system: PC-3
Hs-578T = test system: Hs-578T
SR = test system: SR
OVCAR-5 = test system: OVCAR-5
OVCAR-8 = test system: OVCAR-8
SW-620 = test system: SW-620
ACHN = test system: ACHN
TK-10 = test system: TK-10
HOP-92 = test system: HOP-92

Measured: GI50

O=C1NC(=S)N/C1=C\c1ccc(Sc2ccccc2C(=O)O)s1
inactive: OVCAR-3 > 100 µM | HCC 2998 > 100 µM | LOX IMVI > 100 µM | EKVX > 100 µM | MDA-MB-435 > 100 µM | MDA-N > 100 µM | Malme-3M > 100 µM | UO-31 > 100 µM | MCF7 > 100 µM | SF-295 > 100 µM | SF-268 > 100 µM | PC-3 > 100 µM | Hs-578T > 100 µM | SR > 100 µM | OVCAR-5 > 100 µM | OVCAR-8 > 100 µM | SW-620 > 100 µM | ACHN > 100 µM | TK-10 > 100 µM

N=c1[nH]cnc2c1nnn2C1C=CC(COS(N)(=O)=O)C1 (centres undefined)
inactive: OVCAR-3 10.7 µM | HCC 2998 6.53 µM | LOX IMVI 4.56 µM | EKVX 28.9 µM | MDA-MB-435 4.24 µM | MDA-N 3.94 µM | Malme-3M 15.8 µM | UO-31 5.62 µM | MCF7 10.4 µM | SF-295 16.7 µM | SF-268 10.7 µM | PC-3 3.93 µM | Hs-578T 1.87 µM | SR 18 µM | OVCAR-5 3.37 µM | OVCAR-8 2.38 µM | SW-620 11.6 µM | ACHN 4.65 µM | TK-10 3.18 µM

CCOC(=O)c1cc2c([nH]1)C(=O)CC1=C2CCN1Cc1ccccc1
inactive: LOX IMVI 13.3 µM | EKVX 19.8 µM | HOP-92 14.3 µM | MDA-MB-435 13.2 µM | MDA-N 13.5 µM | Malme-3M 5.65 µM | UO-31 15.3 µM | MCF7 13.3 µM | SF-295 18.5 µM | SF-268 21.3 µM | PC-3 20.5 µM | Hs-578T 20.4 µM | SR 5.02 µM | OVCAR-8 23.1 µM | SW-620 5.36 µM | ACHN 12.9 µM | TK-10 13.9 µM

CC(=O)OCC1=C2C(OC(=O)C(C)C)CC3(COC(C)=O)OC3/C=C\C3(C)OC3C2OC1=O (centres undefined)
inactive: OVCAR-3 > 100 µM | HCC 2998 > 100 µM | LOX IMVI > 100 µM | EKVX > 100 µM | MDA-MB-435 > 100 µM | MDA-N > 100 µM | Malme-3M > 100 µM | UO-31 > 100 µM | MCF7 > 100 µM | SF-295 > 100 µM | SF-268 > 100 µM | PC-3 > 100 µM | Hs-578T > 100 µM | SR > 100 µM | OVCAR-5 > 100 µM | OVCAR-8 > 100 µM | SW-620 > 100 µM | ACHN > 100 µM | TK-10 > 100 µM
